# From patent US7759369B2, “Pyridine compounds for the treatment of prostaglandin mediated diseases” (Glaxo Group Limited, priority 2004, dated 2010)
# What was measured:
# EP3 receptors = molecular target: T1, EP3 receptors (Homo sapiens, UniProt P43115); test: human EP3 calcium mobilisation assay (CHO-K1 cells, PGE2, FLIPR); assay type: cell-based; conditions: free bases or sodium salts; averages of a number of experiments; read-out: functional pKi value, human EP3 calcium mobilisation assay (converted)
# T1 construct: expressed in transfected cells; host or cells: CHO-K1
# T1 sequence (P43115 1-390): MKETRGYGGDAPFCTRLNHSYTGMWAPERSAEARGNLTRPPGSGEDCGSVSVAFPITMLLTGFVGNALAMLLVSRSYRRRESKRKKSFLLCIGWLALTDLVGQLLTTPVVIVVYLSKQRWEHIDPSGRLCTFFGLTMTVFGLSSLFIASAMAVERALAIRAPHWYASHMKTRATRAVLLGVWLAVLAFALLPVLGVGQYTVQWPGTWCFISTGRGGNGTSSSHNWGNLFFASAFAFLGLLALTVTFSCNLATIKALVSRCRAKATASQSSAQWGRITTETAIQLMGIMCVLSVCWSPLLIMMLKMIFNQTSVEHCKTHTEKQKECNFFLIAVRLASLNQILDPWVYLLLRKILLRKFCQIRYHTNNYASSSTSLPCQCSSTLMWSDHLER
# Protocol: (§1) Briefly, the antagonist properties of compounds are assessed by their ability to inhibit the mobilisation of intracellular calcium ([Ca^2+]i) in response to activation of EP1 or EP3 receptors by the natural agonist hormone prostaglandin E2 (PGE2). Increasing concentrations of antagonist reduce the amount of calcium that a given concentration of PGE2 can mobilise. The net effect is to displace the PGE2 concentration-effect curve to higher concentrations of PGE2. The amount of calcium produced is assessed using a calcium-sensitive fluorescent dye such as Fluo-4, AM and a suitable instrument such as a Fluorimetric Imaging Plate Reader (FLIPR). Increasing amounts of [Ca^2+]i produced by receptor activation increase the amount of fluorescence produced by the dye and give rise to an increasing signal. The signal may be detected using the FLIPR instrument and the data generated may be analysed with suitable curve-fitting software.
# (§2) The human EP1 or EP3 calcium mobilisation assay (hereafter referred to as ‘the calcium assay’) utilises Chinese hamster ovary-K1 (CHO-K1) cells into which a stable (pCIN; BioTechniques 20 (1996): 102-110) vector containing either EP1 or EP3 cDNA has previously been transfected. Cells are cultured in suitable flasks containing culture medium such as DMEM:F-12 supplemented with 10% v/v foetal calf serum, 2 mM L-glutamine, 0.25 mg/ml geneticin, 100 μM flurbiprofen and 10 µg/ml puromycin.
# (§3) For assay, cells are harvested using a proprietary reagent that dislodges cells such as Versene. Cells are re-suspended in a suitable quantity of fresh culture media for introduction into a 384-well plate. Following incubation for 24 hours at 37° C. the culture media is replaced with a medium containing Fluo-4 and the detergent pluronic acid, and a further incubation takes place. Concentrations of compounds are then added to the plate in order to construct concentration-effect curves. This may be performed on the FLIPR in order to assess the agonist properties of the compounds. Concentrations of PGE2 are then added to the plate in order to assess the antagonist properties of the compounds.
# (§4) The data so generated may be analysed by means of a computerised curve-fitting routine. The concentration of compound that elicits a half-maximal inhibition of the calcium mobilisation induced by PGE2 (pIC50) may then be estimated.
# EP1 receptors [1] = molecular target: T2, EP1 receptors (Homo sapiens, UniProt P34995); test: human EP1 calcium mobilisation assay (CHO-K1 cells, PGE2, FLIPR); assay type: cell-based; design: expressed in transfected cells; host or cells: CHO-K1; conditions: free bases or sodium salts; averages of a number of experiments; read-out: functional pKi value, human EP1 calcium mobilisation assay (converted)
# T2 sequence (P34995 1-402): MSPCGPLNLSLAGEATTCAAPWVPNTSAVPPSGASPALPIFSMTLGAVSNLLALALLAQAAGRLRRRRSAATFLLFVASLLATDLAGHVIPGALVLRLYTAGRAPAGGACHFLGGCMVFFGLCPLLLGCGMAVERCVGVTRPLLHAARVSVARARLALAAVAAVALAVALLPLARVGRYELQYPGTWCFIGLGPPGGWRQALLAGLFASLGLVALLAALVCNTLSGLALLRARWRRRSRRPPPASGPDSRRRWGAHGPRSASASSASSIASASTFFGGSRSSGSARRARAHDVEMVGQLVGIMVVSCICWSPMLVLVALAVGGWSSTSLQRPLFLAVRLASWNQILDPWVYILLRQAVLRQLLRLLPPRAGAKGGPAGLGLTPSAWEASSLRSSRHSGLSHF
# Protocol: as §1, §2, §3, §4
# TP receptor = molecular target: T3, TP receptor (Homo sapiens, UniProt P21731); test: human TP calcium mobilisation assay (CHO-K1 cells, U46619, FLIPR); assay type: cell-based; conditions: free bases or sodium salts; read-out: functional pKi, human TP calcium mobilisation assay (converted)
# T3 construct: expressed in transfected cells; host or cells: CHO-K1
# T3 sequence (P21731 1-343): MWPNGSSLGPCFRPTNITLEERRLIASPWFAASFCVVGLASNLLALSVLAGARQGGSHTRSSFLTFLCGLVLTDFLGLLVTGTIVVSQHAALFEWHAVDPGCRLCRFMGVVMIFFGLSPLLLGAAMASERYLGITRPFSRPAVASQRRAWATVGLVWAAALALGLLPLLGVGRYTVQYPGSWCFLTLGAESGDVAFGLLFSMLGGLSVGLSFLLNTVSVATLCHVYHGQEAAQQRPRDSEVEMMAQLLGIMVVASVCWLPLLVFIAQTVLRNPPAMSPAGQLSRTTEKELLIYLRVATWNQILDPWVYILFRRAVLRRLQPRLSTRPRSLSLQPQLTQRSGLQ
# Protocol: as §1, with “To determine if a compound has agonist or antagonist activity at the TP receptor a functional calcium mobilisation assay may be performed. Briefly,” for “Briefly,”, “TP” for “EP1 or EP3”, “stable TXA2 mimetic U46619 (9,11-dideoxy-11α,9α-epoxy-methanoprostaglandin F2 α; commercially available from e.g Sigma-Aldrich).” for “natural agonist hormone prostaglandin E2 (PGE2).”, “U46619” for “PGE2”, “curve.” for “curve to higher concentrations of PGE2.”, “software. The agonist activity of the compounds are determined by their ability to cause an increase in intracellular mobilisation in the absence of U46619.” for “software.”
# as §2, with “TP” for “EP1 or EP3”, “assay” for “assay (hereafter referred to as ‘the calcium assay’)”, “TP” for “either EP1 or EP3”, “μg/ml” for “µg/ml”
# as §3, with “96-well” for “384-well”, “U46619” for “PGE2”
# The data so generated may be analysed by means of a computerised curve-fitting routine. The concentration of compound that elicits a half-maximal inhibition of the calcium mobilisation induced by U46619 (plC50) may then be estimated, and the percentage activation caused by the compounds directly can be used to determine if there is any agonism present.
# EP1 receptors [2] = molecular target: T2, EP1 receptors; test: Binding assay for the human prostanoid EP1 receptor (competition with [3H]-PGE2); design: expressed in transfected cells; host or cells: CHO-K1 (membrane fraction); conditions: averages of a number of experiments; Example 3 as sodium salt; read-out: pIC50 value in the binding assay for the human prostanoid EP1 receptor (converted)
# Protocol: Binding Assay for the Human Prostanoid EP1 Receptor
# Competition assay using [^3H]-PGE2.
# Compound potencies are determined using a radioligand binding assay. In this assay compound potencies are determined from their ability to compete with tritiated prostaglandin E2 ([^3H]-PGE2) for binding to the human EP1 receptor.
# This assay utilises Chinese hamster ovary-K1 (CHO-K1) cells into which a stable vector containing the EP1 cDNA has previously been transfected. Cells are cultured in suitable flasks containing culture medium such as DMEM:F-12 supplemented with 10% v/v foetal calf serum, 2 mM L-glutamine, 0.25 mg/ml geneticin, 10 μg/ml puromycin and 10 μM indomethacin.
# Cells are detached from the culture flasks by incubation in calcium and magnesium free phosphate buffered saline containing 1 mM disodium ethylenediaminetetraacetic acid (Na2EDTA) and 10 μM indomethacin for 5 min. The cells are isolated by centrifugation at 250×g for 5 mins and suspended in an ice cold buffer such as 50 mM Tris, 1 mM Na2EDTA, 140 mM NaCl, 10 μM indomethacin (pH 7.4). The cells are homogenised using a Polytron tissue disrupter (2×10s burst at full setting), centrifuged at 48,000×g for 20 mins and the pellet containing the membrane fraction is washed (optional) three times by suspension and centrifugation at 48,000×g for 20 mins. The final membrane pellet is suspended in an assay buffer such as 10 mM 2-[N-morpholino]ethanesulphonic acid, 1 mM Na2EDTA, 10 mM MgCl2 (pH 6). Aliquots are frozen at −80° C. until required.
# For the binding assay the cell membranes, competing compounds and [^3H]-PGE2 (3 nM final assay concentration) are incubated in a final volume of 100 μl for 30 min at 30° C. All reagents are prepared in assay buffer. Reactions are terminated by rapid vacuum filtration over GF/B filters using a Brandell cell harvester. The filters are washed with ice cold assay buffer, dried and the radioactivity retained on the filters is measured by liquid scintillation counting in Packard TopCount scintillation counter.
# The data are analysed using non linear curve fitting techniques to determine the concentration of compound producing 50% inhibition of specific binding (IC50).
Ki (EP3 receptors) [nM],Ki (EP1 receptors [1]) [nM],Ki (TP receptor) [nM],IC50 (EP1 receptors [2]) [nM],SMILES
> 10000,< 1000,< 1000,,"O=C(O)c1cccc(Cc2cc(Cl)ccc2OCc2ccc(Cl)cc2)n1 [Example 9, Sodium 6-[(5-chloro-2-{[(4-chlororophenyl)methyl]oxy}phenyl)methyl]-2-pyridinecarboxylate]"
,,,> 1000,"O=C(O)c1cncc(Cc2cc(Cl)ccc2OCc2c(F)cccc2F)c1 [Example 27, Sodium 5-[(5-chloro-2-{[(2,6-difluorophenyl)methyl]oxy}phenyl)methyl]-3-pyridinecarboxylate]"
,> 1000,,> 1000,"CC(C)(C)Oc1ccc(Cl)cc1Cc1cccc(C(=O)O)n1 [Example 41, 6-({5-Chloro-2-[(1,1-dimethylethyl)oxy]phenyl}methyl)-2-pyridinecarboxylic acid]"
